Measured values as given in US8597660B2, “Therapeutic approach to neurodegenerative disorders using a TFP5-peptide” (The United States of America, as represented by the …, priority 2010, dated 2013).
Entries after “also recorded” stand apart in the source; their conditions may differ.

What was measured:
Cdk5/P35 = Cdk5/P35 (Homo sapiens, UniProt Q00535); assay: In vitro kinase (pad) assay of active Cdk5/P35 with histone H1 as substrate; format: biochemical; details: 0.7 μM P5
Procedure: (§1) Kinase assays were performed as previously described (Veeranna, et al., J Neurosci 18(11), 4008-4021, 1998). Briefly, 7 days in culture (7 DIC) primary rat cortical neurons were infected with P25, P35, Cdk5 wild-type, dominant negative-Cdk5 and P5 using the lentiviral gene delivery as described earlier. Cdk5 was immunoprecipitated using the polyclonal C8 antibody overnight at 4° C. and immunoglobulin isolated using Protein A sepharose beads for 2 hours at 4° C. Immunoprecipitates were washed three times with lysis buffer and then once with 1× kinase buffer containing 20 mM Tris-Cl pH 7.4, 1 mM EDTA, 1 mM EGTA, 10 mM MgCl2, 10 mM sodium fluoride and 1 mM sodium orthovanadate. Endogenous Cdks were immunoprecipitated from HEK 293 cells using their respective antibodies and treated as above. […]
In a dose-dependent kinase assay the effective inhibitory concentration of P5 for both the Cdk5/P25 and Cdk5/P35 complexes was evaluated. […]
P5, a 24 amino acid peptide derived from Cdk5 regulator p35, was modified by conjugating it with TAT PTD at the C-terminal end and with FITC (using a GGG linker) at the N-terminus to produce a fluorescent (FITC-labeled) TFP5 (SEQ ID NO: 2) peptide. In a dose-dependent kinase assay the effective inhibitory concentration of TFP5 for both the Cdk5/P25 and Cdk5/P35 complexes was evaluated. […]

[1] = test system: Cdc2, Cdk2, Cdk4, and Cdk6; assay: Kinase assay of cell cycle Cdk immunoprecipitates from HEK293 cells infected with P5-myc or treated with roscovitine; format: cell-based, human; details: HEK293 cells infected with P5-myc or treated with 20 μM roscovitine
Procedure: (§2) Briefly, 7 days in culture (7 DIC) primary rat cortical neurons were infected with P25, P35, Cdk5 wild-type, dominant negative-Cdk5 and P5 using the lentiviral gene delivery as described earlier. Cdk5 was immunoprecipitated using the polyclonal C8 antibody overnight at 4° C. and immunoglobulin isolated using Protein A sepharose beads for 2 hours at 4° C. Immunoprecipitates were washed three times with lysis buffer and then once with 1× kinase buffer containing 20 mM Tris-Cl pH 7.4, 1 mM EDTA, 1 mM EGTA, 10 mM MgCl2, 10 mM sodium fluoride and 1 mM sodium orthovanadate. Endogenous Cdks were immunoprecipitated from HEK 293 cells using their respective antibodies and treated as above. […] ATP with 20 μg of histone H1 as the substrate. Phosphorylation was performed in a final volume of […] incubated at 30° C. for 60 minutes, stopped by the addition of 10% SDS sample buffer and heating at 95° C. for 5 minutes. Samples were separated by SDS-PAGE, gels were stained with Coomassie, destained, dried and exposed to autoradiography. In pad assays, 25 μl aliquots of the incubation mixture were placed on a Whatman p80 paper square, washed and dried and placed in a scintillation vial for counting.

Cdk5/P25 = biological target: T1, Cdk5/P25 (Rattus norvegicus, UniProt Q03114); assay: In vitro kinase assay on Cdk5 immunoprecipitates of Aβ1-42-treated cortical neurons with added P5 peptide; format: biochemical; details: P5 0.45 μM or above
T1 construct: endogenous in cells; host or cells: E-18 rat cortical neurons treated with 10 uM Abeta1-42
Procedure: as §1, with “above. Kinase assays were performed in the same buffer containing 1 mM DTT, 0.1 mM ATP and 0.185 MBq [γ-32P] ATP with 20 μg of histone H1 as the substrate.” for “above.”
To determine the minimum dose at which the P5 peptide is an efficient inhibitor of Cdk5/P25 hyperactivity under physiological conditions, cortical neurons were treated with Aβ1-42 to induce the expression of P25 and Cdk5 hyperactivation, Cdk5 immunoprecipitates were prepared and the effect of different concentrations of P5 was evaluated (FIG. 6).

[2] = test system: Cdc2, Cdk2, Cdk4, and Cdk6; assay: Kinase pad assay on Cdk immunoprecipitates of untreated HEK293 lysates with added P5 peptide; format: biochemical, human; details: P5 peptide up to 1.8 μM; roscovitine 20 μM
Procedure: as §2

cleaved caspase-3 = assay: Cleaved caspase-3 Western blot in Aβ-treated cortical neurons; format: cell-based, rat; details: Aβ 6 h; P5 infection or roscovitine
Procedure: Western blot analysis was performed as previously described (Zheng et al., Eur J Biochem 269(18), 4427-4434, 2002). In brief, an equal amount of total protein (20 μg/lane) was resolved on a 4-20% SDS polyacrylamide gel and blotted onto a polyvinylidene difluoride membrane. This membrane was incubated in blocking buffer containing 20 mM Tris-HCl (pH 7.4), 150 mM NaCl, and 0.1% (vol/vol) Tween 20 (TTBS) plus 5% dry milk (w/v) for 1 hour at room temperature followed by incubation overnight at 4° C. in primary antibodies (see antibodies). The membranes were then washed four times in TTBS (5 minutes/each) followed by incubation in secondary antibody (goat-antimouse or goat anti-rabbit IgG (H+L)-horseradish peroxidase (HRP) conjugate at a dilution of 1:3000) for 1 hour at room temperature. Western blots were analyzed using the Amersham Enhanced Chemiluminescence (ECL) kit following the manufacturer's instructions (GE Healthcare, Piscataway, N.J.).
To determine whether P5 inhibited neuronal apoptosis induced by Aβ, primary cortical neurons (5 days in culture (DIC)) were transfected with P5-GFP using Lipofectamine 2000. After 24 hours, cells were exposed to Aβ for 6 hours. The neurons were fixed and subjected to TUNEL staining, while P5 was visualized by (green fluorescent protein) GFP. […] The data are quantified in FIG. 5B. […] The data are quantified in FIG. 5D.

Cdk5/P35, sequence (Q00535 whole entry, species assumed): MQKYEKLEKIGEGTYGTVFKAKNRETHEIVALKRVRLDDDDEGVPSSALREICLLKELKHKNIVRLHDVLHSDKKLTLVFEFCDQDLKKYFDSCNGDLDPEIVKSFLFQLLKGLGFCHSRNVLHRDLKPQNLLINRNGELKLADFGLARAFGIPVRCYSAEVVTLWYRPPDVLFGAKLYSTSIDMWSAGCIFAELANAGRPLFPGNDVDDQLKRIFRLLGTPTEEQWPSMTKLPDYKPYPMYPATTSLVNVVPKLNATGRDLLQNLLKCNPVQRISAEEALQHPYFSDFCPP
T1 sequence (Q03114 whole entry): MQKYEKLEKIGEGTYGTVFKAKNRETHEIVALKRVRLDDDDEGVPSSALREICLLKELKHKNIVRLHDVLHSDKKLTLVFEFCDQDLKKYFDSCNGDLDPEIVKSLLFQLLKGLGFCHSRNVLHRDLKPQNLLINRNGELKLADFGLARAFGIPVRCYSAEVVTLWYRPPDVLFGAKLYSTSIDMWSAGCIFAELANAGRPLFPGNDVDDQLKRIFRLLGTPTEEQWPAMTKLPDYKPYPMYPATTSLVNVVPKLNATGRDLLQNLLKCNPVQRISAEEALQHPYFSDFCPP

Inhibition of Cdk5/P35 activity (Cdk5/P35): approximately 70%
Aβ1-42-induced Cdk5 hyperactivity (Cdk5/P25): totally eliminated
Substance: P5: 24 residue peptide derived from Cdk5 activator P35 (K254-A277 of SEQ ID NO: 16); Cdk5 inhibitory peptide (KEAFWDRCLSVINLMSSKMLQINA; listed as Homo sapiens)
Inhibition of endogenous cell cycle Cdk activity [1]: virtually no effect; also recorded: no inhibition in all cases; also recorded: unaffected by P5
Inhibition of cell cycle Cdk activities in vitro [2]: virtually no inhibition; also recorded: minimal inhibition of Cdc2 and Cdk4 activities
Cleaved caspase-3 expression (cleaved caspase-3): marked reduction in cleaved caspase 3 expression; also recorded: reduced to control EV levels; also recorded: significantly rescued cortical neurons from apoptosis
